Experimental data as given in PubChem BioAssay (NCI).
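Five compound concentrations were applied to cells in 96-well plates for 48 hours; endpoints were derived by simple linear interpolation of the resulting dose-response curve. Here, GI50 denotes the concentration required for 50% inhibition of growth. TGI is the concentration that stops growth completely.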

Assays:
Experiment in all cases: NCI tumour cell line growth inhibition, 48 h
CAKI-1 renal = tested on: CAKI-1 renal
SK-MEL-5 melanoma = tested on: SK-MEL-5 melanoma
SN12C renal = tested on: SN12C renal
SK-MEL-2 melanoma = tested on: SK-MEL-2 melanoma
COLO 205 colon = tested on: COLO 205 colon
HOP-62 NSCLC = tested on: HOP-62 NSCLC
SK-OV-3 ovarian = tested on: SK-OV-3 ovarian
SF-295 CNS = tested on: SF-295 CNS
HCC-2998 colon = tested on: HCC-2998 colon
LOX IMVI melanoma = tested on: LOX IMVI melanoma

| Compound | GI50 (CAKI-1 renal) [µM] | TGI (CAKI-1 renal) [µM] | GI50 (SK-MEL-5 melanoma) [µM] | TGI (SK-MEL-5 melanoma) [µM] | GI50 (SN12C renal) [µM] | TGI (SN12C renal) [µM] | GI50 (SK-MEL-2 melanoma) [µM] | TGI (SK-MEL-2 melanoma) [µM] | GI50 (COLO 205 colon) [µM] | TGI (COLO 205 colon) [µM] | GI50 (HOP-62 NSCLC) [µM] | TGI (HOP-62 NSCLC) [µM] | GI50 (SK-OV-3 ovarian) [µM] | TGI (SK-OV-3 ovarian) [µM] | GI50 (SF-295 CNS) [µM] | TGI (SF-295 CNS) [µM] | GI50 (HCC-2998 colon) [µM] | TGI (HCC-2998 colon) [µM] | GI50 (LOX IMVI melanoma) [µM] | TGI (LOX IMVI melanoma) [µM] |
| --- | --- | --- | --- | --- | --- | --- | --- | --- | --- | --- | --- | --- | --- | --- | --- | --- | --- | --- | --- | --- |
| CC[C@H](C)C(=O)O[C@H]1C[C@H](O)C=C2C=C[C@H](C)[C@H](CC[C@@H](O)C[C@@H](O)CC(=O)O)[C@H]21 | > 100 | > 100 | > 100 | > 100 | > 100 | > 100 | > 100 | > 100 | > 100 | > 100 | > 100 | > 100 | > 100 | > 100 | > 100 | > 100 | > 100 | > 100 | > 100 | > 100 |
| COc1ccc2ccc3oc([N+](=O)[O-])cc3c2c1 | 0.186 | 0.514 | 0.104 | 0.228 | 0.311 | 5.32 | 0.242 | 0.509 | 0.157 | 0.432 | 1.03 | 6.34 | 0.206 | 0.894 | 0.251 | 3.22 | 0.171 | 0.416 | 0.0557 | 0.355 |
| O=[N+]([O-])c1cccc2nccc(NCCCO)c12 | – | 35.4 | – | 14.4 | – | 28 | – | 20.9 | – | 15.8 | – | 35.4 | – | 61 | – | 32 | – | 26 | – | 31.7 |
| CC1(C)C(=O)/C(=C\c2cccnc2)C[C@]2(C)[C@H]3CC[C@@H]4[C@@H](C(=O)/C=C/c5ccncc5)CC[C@@]4(C)[C@]3(C)CC[C@@H]12 | 2.51 | 6.46 | 1.67 | 3.05 | 2.47 | 7.85 | 1.93 | 4.38 | 1.88 | 3.87 | 1.9 | 3.94 | 4.86 | 18.9 | 1.95 | 4.31 | 2.1 | 3.84 | 1.38 | 2.95 |
| N.N.O=P([O-])([O-])C1(P(=O)([O-])[O-])CCCCCN1.[Pt+2] | > 100 | > 100 | > 100 | > 100 | > 100 | > 100 | > 100 | > 100 | > 100 | > 100 | > 100 | > 100 | > 100 | > 100 | > 100 | > 100 | > 100 | > 100 | > 100 | > 100 |
| O=c1oc2c(C(F)(F)F)cccc2cc1-c1csc(Nc2ccc(OCCF)cc2)n1 | 0.0521 | > 34.7 | 0.0658 | 0.497 | 0.271 | > 64.4 | 0.0593 | > 39.9 | 0.0268 | 0.0729 | 0.0378 | > 36.8 | 0.041 | 23.2 | 0.0286 | 12.7 | 0.0423 | > 100 | 0.0467 | > 42.2 |
